Reference: patent US20240262865A1, “Calcium independent phosphatidylserine binding compounds for detecting phosphatidylserine positive cells” (priority 2023, published 2024)
BODIPY = fluorogenic core (…diaza-s-indacene), attached to Trp by a spacer-free C—C linkage

Legend:
PS positive cells [1] = assay: Flow cytometry staining of PS positive cells on one day old mouse thymocytes, side by side with Apotracker Green and Annexin V; assay type: cell-based; settings: one day old C57BL/6 mouse thymocytes, Atto 647 Item-2 28 pM/test and Apotracker 400 nM/test in PBS without Ca2+, Alexa 647 Annexin V in Annexin V binding buffer, Sytox Blue
Description: Whether an agent is considered to be a PS binding agent or to have a PS binding activity, it can be determined by using a flow cytometer to detect the PS binding activity of said agent which has been illustrated in the art. Thereby, PS positive cells can be used in such an assay, wherein the number of stained cells may be compared to the reference agent Apotracker Green and/or Annexin V, in accordance with the present invention.
To validate the Atto 647 Item-2 by flow cytometry, one day old C57BLU6 mouse thymocytes were side by side incubated with 28 pM/test of Atto 647 Item-2 and Sytox Blue or 400 nM/test of Apotracker and Sytox Blue in PBS without Ca^2+ or 5 μLtest of Alexa 647 Annexin V and of Sytox Blue in Annexin V binding buffer for 15 minutes at room temperature, then the cells were analyzed with NovoCyte Quanteon flow cytometry without wash. Debris were gated out based on cell density plot in a lower level of forward scatter. The two-parameter density plots show Atto 647 Item-2 or Apotracker Green or Annexin V versus Sytox Blue. Sytox Blue is an impermeant blue-emitting nucleic acid indicator which is used for indicating the dead cells. Sytox Blue was used at 20 nM/test in herein.
The cells were analyzed with NovoCyte Quanteon flow cytometry without wash.

PS positive cells [2] = assay: Flow cytometry of Atto 647 Item-2 stained U937 cells before and after 2% PFA fixation; assay type: cell-based; settings: U937 cells in PBS without Ca2+
Description: In order to validate if the PS positive cells stained with Atto 647 Item-2 are fixable, the fresh and 2 days IL-4 stimulated U937 cells were simultaneously stained with 28 pM/test of Atto 647 Item-2 and 20 nM of Sytox Blue, then the cells were split into two sets. One set of cells were analyzed with flow cytometry right after staining without wash, the other set of cells were fixed by adding 16% of Paraformaldehyde (PFA) to the final concentration at 2% PFA for 10 minutes at room temperature followed by centrifugation at 350 g for 5 minutes. Then the cells were resuspended in PBS without Ca^2+. The fresh cells and stimulated cells with or without fixation were analyzed on day 0 and day 2 respectively. The cells were analyzed with NovoCyte Quanteon flow cytometry without wash.

Molecule | staining pattern and frequencies of PS positive dying cells and dead cells (PS positive cells [1]) | calcium dependence of PS binding (PS positive cells [2])
Apotracker Green: cyclic peptide of SEQ ID NO: 1 [RKKWFW(BODIPY)G]; calcium-independent PS binding agent, commercial name Apotracker Green (cyclo(RKKWFW(BODIPY)G)) [reference compound] | comparable to each other | –
Item-2: PS binding compound derivative comprising SEQ ID NO: 2 [RKKWFWC], head-to-tail cyclized (head-to-tail cyclized) | – | Ca^2+ independent
Annexin V: recombinant protein, PS binding agent binding PS in the presence of calcium; used as Alexa 647 conjugate (protein, UniProt P08758 2-320, looked up, Alexa 647 label, used as Alexa 647 conjugate) Annexin A5: AQVLRGTVTDFPGFDERADAETLRKAMKGLGTDEESILTLLTSRSNAQRQEISAAFKTLFGRDLLDDLKSELTGKFEKLIVALMKPSRLYDAYELKHALKGAGTNEKVLTEIIASRTPEELRAIKQVYEEEYGSSLEDDVVGDTSGYYQRMLVVLLQANRDPDAGIDEAQVEQDAQALFQAGELKWGTDEEKFITIFGTRSVSHLRKVFDKYMTISGFQIEETIDRETSGNLEQLLLAVVKSIRSIPAYLAETLYYAMKGAGTDDHTLIRVMVSRSEIDLFNIRKEFRKNFATSLYSMIKGDTSGDYKKALLLLCGEDD | comparable to each other | –
